Assay [1] deals with development of arthritis in the rat adjuvant arthritis model. In words: Rat Adjuvant Arthritis Model (Method A). In kind it is in vivo. To be noted: 25 mg/kg (i.p.). Here is the method: Rat Adjuvant Arthritis Model
The test is as described by Newbould, Brit. J. Pharmacol., 1963, 21, 127-136.
It is used to indicate anti-rheumatic activity as shown by inhibiting the development of arthritis in the rat adjuvant arthritis model. The compound of Example 1 is active at a concentration of 25 mg/kg (i.p.)

The next assay concerns 5-lipoxygenase enzyme. In words: RBL-1 5-Lipoxygenase Screen (Method B), cell free. In kind it is biochemical. To be noted: 2 min. Here is the method: RBL-1 5-Lipoxygenase Screen
5-Lipoxygenase enzyme was prepared as a 10,000 g supernatant from RBL-1 cells by the method of Jakschik [Jakschik, B. A., F. F. Sun, L. M. Lee, and M. M. Steinhoff, 1980, Biochem. Biophys. Res. Comm. 95, 103]. The 10,000 g supernatant was diluted with homogenization buffer to the equivalent of 1.5-2.5×10^7 cells. ml^-1 and made 2 mM with respect to CaCl2. Aliquots of 0.5 ml were then dispensed into tubes, and incubated at 29° C. with 5 μl ethanol or compound in ethanol at the desired concentration for 2 min. Then […] arachidonic acid was added in buffer to give final concentration of 6.3 μM and 0.2 μCi per incubation, and the reaction continued at 29° C. for 2 min. The reaction was terminated by adding 1 ml of acetone and cooling on ice, 0.5 ml of ice-cold saline and 10 μl of 2N formic acid were added, and the mixture was extracted with 2×2 ml of chloroform. The extract was stored under N2 at -20° C. until analysis by chromatography.
This test is used to show inhibition of the 5-lipoxygenase enzyme in a mammalian RBL-1 cell free 5-lipoxygenase assay.

For assay [2], the system named is carrageenin-induced pleurisy in the rat. Description: Carrageenin-induced pleurisy in the rat (Method C). To be noted: 1 hour before and 24 and 48 hours after carrageenin. It is filed as in vivo. Here is the method: CARRAGEENIN-INDUCED PLEURISY IN THE RAT This model of monocyte accumulation is based on the method of R. Vinegar, J. F. Truax, J. […] [Federation Proceedings 41, 2588-2595, 1982]. 0.2 ml of a 2.0% solution of λ-carrageenin (Viscarin 402) in saline was injected intrapleurally in anaesthetised rats (wt. approx. 175-200 g). […] Exudate volume was calculated from the dilution of the phenol red injected, determined spectrophotometrically (560 nm) and cellular content estimated with a DNA assay [[…]. and Wollenberger A. Anal. Biochem. 77, 464-470, 1977]. This test is used to indicate anti-inflammatory activity against carrageenin-induced pleurisy in the rat.

The next assay deals with SRS-A release. In words: Rat passive peritoneal anaphylaxis (PPA), SRS-A release (Method D). In kind it is in vivo. The settings on record: final concentration of 2×10^-4 M, intraperitoneal. The text has this:
Rat passive peritoneal anaphylaxis (PPA) The method is essentially similar to that described previously by Ross et al (Ross, Janet W., Smith, H. and Spicer, Barbara A. Increased vascular permeability during passive peritoneal anaphylaxis in the rat. Int. Arch. Allergy appl. Innum. 51, 226, 1976.) Charles River Sprague Dawley male rats of 225-275 g and Dunkin Hartley male white guinea pigs of 300-700 g were used. Charles River Sprague Dawley male rats of 225-275 g were given intraperitoneal injections of 0.5 ml of either Bordetella pertussis vaccine (4×10^10 organisms/ml; Burroughs Wellcome, London) or Pertussis vaccine absorbed (not less than 41.u. B. pertussis antigen with aluminium hydroxide; The Lister Institute Elstree, England), and subcutaneous injections of 0.5 ml of an emulsion of 100 mg of ovalbumin (chicken egg albumin; crystallised and lyophilised, grade V, Sigma, London) in 2 ml of isotonic saline and 3 ml of incomplete Freund's adjuvant. The rats were bled by cardiac puncture, under ether anaesthesia,on day 18, the blood was pooled and the serum separated, stored at -20° C. and thawed only once before use. The serum produced 72 hour passive cutaneous anaphylaxis activity in recipient rats to a dilution of 1:64 which was decreased to a dilution of less than 1:2 by heating at 56° C. for 4 hours. Rats were given intraperitoneal injections of 2 ml of a 1:5 dilution of the rat anti-serum in isotonic saline. Two hours later 0.3 ml of 5% solution of Pontamine Sky Blue (Raymond A. Lamb, London) in isotonic saline was injected intraveneously, followed by an intraperitoneal injection of the test compound in 1 ml of saline; (control rats received 1 ml of saline); followed 2.5 minutes later by an intraperitoneal injection of 5 ml of a Tyrode solution containing 50 μg/ml heparin and 0.4 mg/ml of ovalbumin. The concentrations of the compounds were quoted as that in the 6 ml of fluid injected intraperitoneally. […]

The record followed here is patent US4925853A, “Benzimidazoles as 5-lipoxygenase inhibitors” (Beecham Group PLC, priority 1984, dated 1990).

Where a name gives a salt, the structure may show the parent alone.

In the case of `Cc1ccc(O)c2[nH]c(Cc3ccccc3)nc12` [Example 1, 2-Benzyl-4-hydroxy-7-methylbenzimidazole], the “anti-rheumatic activity: inhibition of the development of arthritis in the rat adjuvant arthritis model” value in assay [1] is given as “active”. Moreover, the “percentage inhibition (5-lipoxygenase; formation of 5-HETE and 5,12-diHETE)” value in the assay with 5-lipoxygenase enzyme (0.5 μM concentration, p<0.01) amounted to 36.0 percentage; with 5-lipoxygenase enzyme (5 μM concentration, p<0.001) it was 78.1 percentage.

In the case of `Cc1ccc(Cc2nc3c(C)ccc(O)c3[nH]2)cc1` [Example 10, 2-(4'-Methylbenzyl)-4-hydroxy-7-methylbenzimidazole], the “anti-inflammatory activity against carrageenin-induced pleurisy” value (from here on “anti-inflammatory activity”) in assay [2] (25 mg/kg (p.o.)) is given as “active”. Regarding `COc1ccc(Cc2nc3c(C)ccc(O)c3[nH]2)cc1.Cl` [Example 12, 2-(4'-Methoxybenzyl)-4-hydroxy-7-methylbenzimidazole hydrochloride], the “anti-inflammatory activity” value in assay [2] (25 mg/kg (p.o.)) is “active”. In addition, the “% inhibition of SRS-A release compared to controls” value (“% inhibition of SRS-A release” for short) in the assay with SRS-A release came to 58%. In the case of `Cc1ccc(O)c2[nH]c(CCCCCC(=O)O)nc12` [Example 18, 6-(4-Hydroxy-7-methyl-benzimidazol-2-yl)-hexanoic acid hydrochloride hydrate (3:3:1)], in assay [2] (12 mg/kg (i.p)), the “anti-inflammatory activity” value is reported as “active”. Take `COc1cc(Cc2nc3c(C)ccc(O)c3[nH]2)cc(OC)c1OC.Cl` [Example 25, 2-(3',4',5'-Trimethoxybenzyl)-4-hydroxy-7-methylbenzimidazole hydrochloride]: the “% inhibition of SRS-A release” value in the assay on SRS-A release was 59%.

Consider `COc1ccc(Cc2nc3c(C)ccc(O)c3[nH]2)cc1OC.Cl` [Example 26, 2-(3',4'-Dimethoxybenzyl)-4-hydroxy-7-methylbenzimidazole hydrochloride], for which the “% inhibition of SRS-A release” value in the assay with SRS-A release came out at 55%.
